Measurements from article PMC7503713, “GANT61 Reduces Hedgehog Molecule (GLI1) Expression and Promotes Apoptosis in Metastatic Oral Squamous Cell Carcinoma Cells” (International Journal of Molecular Sciences, 2020).
“And” between values parts separate entries of the source, which are not always exact repeats. Identical values can stand only once.

Assays:
Type in all cases: cell-based, human
[1] = tested on: PBMC; assay: alamarBlue cytotoxicity assay, PBMC; settings: 72 h of incubation
Procedure: Human peripheral blood mononuclear cells (PBMC) lymphocytes and monocytes) were obtained from the peripheral blood of healthy, non-smoking volunteers aged 25–35 years. None of the volunteers had used any type of drug or medication for at least 15 days prior to collection. Blood collection (5 mL) was performed in heparinized vials by trained professionals at the Laboratory of Tissue Engineering and Immunopharmacology (LETI, IGM-FIOCRUZ, Salvador, Brazil), using sterile disposable syringes. PBMCs were isolated by a standard protocol described by Dias et al. (2018). The institutional review board of the Gonçalo Moniz Institution, Oswaldo Cruz Foundation (IGM-FIOCRUZ), in Salvador, Bahia, Brazil, approved all experimental protocols (No.031019/2013). All participants provided written informed consent prior to participation in the study.
To assess the cytotoxicity of the GLI inhibitor GANT61 (Sigma-Aldrich, St. Louis, MO, USA) in tumor and non-tumor cell lines, an alamarBlue assay (Sigma-Aldrich Chemical Co, St. Louis, MO, USA) was performed after 72 h of exposure to the inhibitor, as described by Ahmed et al., 1994 [46]. Cells were distributed on 96-well plates at a density of 7 × 10^4 cells/mL for adhered cells, and 3 × 10^5 cells/mL for cells in suspension. All tested compounds were dissolved in DMSO, added to wells containing 100 µL of cells in complete medium, and then incubated for 72 h. […] Absorbance was measured at 570 nm (reduced) and 595 nm (oxidized) wavelengths, using a Spectramax 190 plate reader (Molecular Devices; Sunnyvale, CA, USA).
Statistical analyses were performed, using GraphPad Prism v. […] Data were analyzed according to distribution along the normal Gaussian curve. […] Differences between groups resulting from in vitro assays were evaluated by ANOVA (analysis of variance) testing, followed by the Student–Newman–Keuls test. […]

[2] = tested on: HSC3 cells; assay: Morphological analysis by flow cytometry (FSC/SSC)
Procedure: To study the effects of GANT61 on HSC3 cell viability, cycle, and death patterns, 4 mL of cellular solution (containing 0.7 × 10^5 cells/mL) was placed on 6-well plates and incubated overnight, to allow adhesion. […] For cell cycle analysis, the effects of GANT61 on HSC3 cells were also evaluated after 12 h of treatment. Negative controls were treated with the vehicle (0.2% DMSO) used to dilute the GLI inhibitor, and 5-fluorouracil (5-FU, 17 μM) was used as a positive control. All experiments were carried out in duplicate and repeated no less than three times. Cell viability was determined by the trypan blue exclusion method, in which 90 μL aliquots were collected at several incubation periods, stained with 10 μL trypan blue, and counted in a Neubauer chamber, under optical microscopy, at 20× magnification (Olympus CX41 Olympus, Tokyo, Japan).
Morphological analysis of HSC3 cells was performed by flow cytometry, using FSC (size/volume) and SSC (granularity) parameters (FACSDiva). Cells were acquired (10,000 events/sample) and analyzed on a BD LSRFortessa flow cytometer, using the BD FACSDiva software version 6.2 (Becton Dickinson Biosciences, San José, CA, USA). Cellular debris was omitted from our analyses.

[3] = tested on: HCT-116; assay: alamarBlue cytotoxicity assay, HCT-116; settings: HCT-116, alamarBlue, 72 h of incubation
Procedure: (§1) To assess the cytotoxicity of the GLI inhibitor GANT61 (Sigma-Aldrich, St. Louis, MO, USA) in tumor and non-tumor cell lines, an alamarBlue assay (Sigma-Aldrich Chemical Co, St. Louis, MO, USA) was performed after 72 h of exposure to the inhibitor, as described by Ahmed et al., 1994 [46]. Cells were distributed on 96-well plates at a density of 7 × 10^4 cells/mL for adhered cells, and 3 × 10^5 cells/mL for cells in suspension. All tested compounds were dissolved in DMSO, added to wells containing 100 µL of cells in complete medium, and then incubated for 72 h. Eight concentrations of GANT61 (0.19 to 50 µg/mL), Doxorubicin (Laboratory IMA S.A.I.C., Buenos Aires, Argentina), and 5-Fluorouracil (5-FU, Sigma-Aldrich, St. Louis, MO, USA), both used as positive controls at concentrations ranging from 0.03 to 5 µg/mL, were added to respective wells. Cells treated with the vehicle (0.5% DMSO) used to dilute the tested compounds were used as negative controls. Before the end of the incubation period (4 h for cell lines and 24 h for PBMCs), 20 µL of alamarBlue stock solution (resazurin, Sigma-Aldrich, St. Louis, MO, USA) was added to each well. Absorbance was measured at 570 nm (reduced) and 595 nm (oxidized) wavelengths, using a Spectramax 190 plate reader (Molecular Devices; Sunnyvale, CA, USA).
Statistical analyses were performed, using GraphPad Prism v. 6.03 (GraphPad Software, Inc., San Diego, USA). Data were analyzed according to distribution along the normal Gaussian curve. IC50 values were obtained through non-linear regression, using results from three independent experiments carried out in duplicate. Differences between groups resulting from in vitro assays were evaluated by ANOVA (analysis of variance) testing, followed by the Student–Newman–Keuls test. This study considered a level of significance, corresponding to alpha (α) or “p” value, when results were less than or equal to 5%.

[4] = tested on: HSC3; assay: alamarBlue cytotoxicity assay, HSC3; settings: 72 h of incubation
Procedure: For cytotoxicity assessments, this study primarily focused on the highly metastatic HSC3 OSCC cell line (JCRB Cell Bank, Osaka, Japan) and employed other histological tumor cell types and non-tumor cells (Supplementary Table S1). HSC3 cells were placed in flasks ([…], 250 mL volume) containing DMEM medium (Gibco, Lif Technologies, Gaithesburg, MD, USA) supplemented with 10% fetal bovine serum (FBS, Gibco, Life Technologies, Gaithesburg, MD, USA) 1% penicillin, 1% streptomycin (Gibco, Life Technologies, Gaithesburg, MD, USA), and 0.8% hydrocortisone (Sigma-Aldrich, St. Louis, MO, USA). Cells were cultured and kept in incubators, under an atmosphere of 5% CO2 at 37 °C. Trypsinization was used to dissociate cells when cell growth reached the necessary confluence, i.e., 70 to 80% of the total culture flask volume. Cell cultures were tested periodically for mycoplasma contamination and evaluated by using a luminometer, according to the MycoAlert^TM PLUS protocol (Lonza, Walkersville Inc., Walkersville, MD, USA, 2012).
as §1
Statistical analyses were performed, using GraphPad Prism v. 6.03 (GraphPad Software, Inc., San Diego, USA). Data were analyzed according to distribution along the normal Gaussian curve. […] Differences between groups resulting from in vitro assays were evaluated by ANOVA (analysis of variance) testing, followed by the Student–Newman–Keuls test. […]

Row | SMILES | IC50 ([1]; Homo sapiens) [µM] | cell morphology (FSC/SSC) ([2]; HSC3, 17 µM) | IC50 ([3]; Homo sapiens) [µM] | IC50 [4] | IC50 ([4]; Homo sapiens, HSC-3, 72 h) [µM] | IC50 [1] [µM] | cell morphology (FSC/SSC) ([2]; HSC3, 18 and 36 µM, 24, 48 and 72 h) | IC50 [3] [µM]
1 | O=c1[nH]cc(F)c(=O)[nH]1 [5-FU, 5-fluorouracil] | > 192 | changes consistent with apoptotic death | 4.07 | 16.8 µM | 17 |  |  | 
2 | CN(C)c1ccccc1CN1CCCN(Cc2ccccc2N(C)C)C1c1ccncc1 [GANT61] |  |  |  | 36 µM and 35.9 µM |  | 87.5 | cell shrinkage | > 116
